Data: paper PMC6427567, “Discovery of novel coumarin derivatives as potent and orally bioavailable BRD4 inhibitors based on scaffold hopping” (Journal of Enzyme Inhibition and Medicinal Chemistry, 2019)

What was measured:
[1] = target: T1, BRD4-full length: recombinant human bromodomain containing protein 4 (bromodomain 1 and 2; aa 2–1362) (Homo sapiens, UniProt O60885); experiment: BRD4 binding assay (AlphaScreen); conditions: for IC50 / BRD4 binding activity in words: AlphaScreen assay; for LE (Ligand Efficiency): LE = 1.4 (pIC50/heavy atoms)
T1 construct: (bromodomain 1 and 2; aa 2–1362; Genbank Accesstion # NM_058243); host or cells: Sf9 insect cells
Procedure: The binding affinity was evaluated by a using AlphaScreen technology […] assay. The biotinylated peptide binding to the reader domain of His-tagged protein is monitored by the singlet oxygen transfer from the Streptavidin-coated donor beads to the AlphaScreen Ni-chelate acceptor beads. Reagent:Reaction buffer:50 mM Hepes, pH7.5, 100 mM NaCl, 0.05% CHAPS, 0.1% BSA, and 1% DMSO (the final DMSO concentration may different depending on compound stock and test concentrations). […] MW = 156.5 kDa. […] Reaction procedure: (1) Deliver 2.5× BRD in wells of reaction plate except No BRD control wells. Add buffer instead. (2) Deliver compounds in 100% DMSO into the BRD mixture by Acoustic technology (Echo550; nanoliter range). Spin down and pre-incubation for 30 min. (3) Deliver 5 × Ligand. Spin and shake. (4) Incubate for 30 min at room temperature with gentle shaking. (5) Deliver 5× donor beads. Spin and shake. (6) Deliver 5 × acceptor beads. Spin and shake. Then gentle shaking in the dark for 60 min. (7) Alpha measurement (Ex/Em = 680/520–620 nm) in Enspire.

[2] = parameters: method as in PMID 23095041; conditions: cited from earlier work

IC50 [1] [µM] | LE (Ligand Efficiency) [1] | SMILES | also measured
6.59 | 0.35 | O=c1ccc2cc(NS(=O)(=O)c3ccccc3)ccc2o1 [Compound 1, N-(2-oxo-2H-chromen-6-yl)benzenesulphonamide] | –
19 | 0.31 | O=c1ccc2cc(NS(=O)(=O)C3CCCCC3)ccc2o1 [Compound 2, N-(2-oxo-2H-chromen-6-yl)cyclohexanesulphonamide] | –
17.9 | 0.33 | O=c1ccc2cc(NS(=O)(=O)C3CCCC3)ccc2o1 [Compound 3, N-(2-oxo-2H-chromen-6-yl)cyclopentanesulphonamide] | –
38.5 | 0.34 | CCCS(=O)(=O)Nc1ccc2oc(=O)ccc2c1 [Compound 4, N-(2-oxo-2H-chromen-6-yl)propane-1-sulphonamide] | –
30 | 0.33 | CCCCS(=O)(=O)Nc1ccc2oc(=O)ccc2c1 [Compound 5, N-(2-oxo-2H-chromen-6-yl)butane-1-sulphonamide] | –
5.09 | 0.30 | CC(C)(C)c1ccc(S(=O)(=O)Nc2ccc3oc(=O)ccc3c2)cc1 [Compound 8, 4-(tert-butyl)-N-(2-oxo-2H-chromen-6-yl)benzene sulphonamide] | –
5.03 | 0.32 | N#Cc1cccc(S(=O)(=O)Nc2ccc3oc(=O)ccc3c2)c1 [Compound 9, 3-cyano-N-(2-oxo-2H-chromen-6-yl)benzene sulphonamide] | –
2.21 | 0.36 | O=c1ccc2cc(NS(=O)(=O)c3ccccc3Cl)ccc2o1 [Compound 10, 2-chloro-N-(2-oxo-2H-chromen-6-yl)benzenesulphonamide] | –
0.98 | 0.37 | COc1ccccc1S(=O)(=O)Nc1ccc2oc(=O)ccc2c1 [Compound 11, 2-methoxy-N-(2-oxo-2H-chromen-6-yl)benzenesulphonamide] | lipophilic efficiency (LipE) ([1]; LipE = −lg (IC50) − logP): 3.9; fold more potent than 1 (BRD4 IC50) ([1]; compared with compound 1): approximately 7 fold
1.77 | 0.35 | O=c1ccc2cc(NS(=O)(=O)c3ccc(Cl)cc3Cl)ccc2o1 [Compound 12, 2,4-dichloro-N-(2-oxo-2H-chromen-6-yl)benzenesulphonamide] | –
9.26 | 0.35 | O=c1ccc2cc(NS(=O)(=O)c3cccs3)ccc2o1 [Compound 14, N-(2-oxo-2H-chromen-6-yl)thiophene-2-sulphonamide] | BRD4 binding activity in words [1]: low binding activity
12.2 | 0.28 | O=c1ccc2cc(NS(=O)(=O)c3ccc4ccccc4c3)ccc2o1 [Compound 15, N-(2-oxo-2H-chromen-6-yl)naphthalene-2-sulphonamide] | BRD4 binding activity in words [1]: reduction of affinity
18.4 | 0.28 | O=c1ccc2cc(NS(=O)(=O)c3ccc4c(c3)CCO4)ccc2o1 [Compound 16, N-(2-oxo-2H-chromen-6-yl)-2,3-dihydrobenzofuran-5-sulphonamide] | BRD4 binding activity in words [1]: reduction of affinity
32.6 | – | COc1ccc(NS(=O)(=O)c2ccc3oc(=O)ccc3c2)cc1 [Compound 17, N-(4-methoxyphenyl)-2-oxo-2H-chromene-6-sulphonamide] | fold decrease in potency compared with 7 (BRD4) ([1]; compared with compound 7): ~5 fold
– | – | COc1ccccc1S(=O)(=O)Nc1ccc2c(c1)CN(C)C(=O)N2 [PFI-1] | oral bioavailability (F) [2]: 32%

SMILES | IC50 [1] [µM] | LE (Ligand Efficiency) [1] | also measured
O=c1ccc2cc(NS(=O)(=O)c3ccc(Cl)cc3)ccc2o1 [Compound 6, 4-chloro-N-(2-oxo-2H-chromen-6-yl)benzenesulphonamide] | 2.97 | 0.34 | –
COc1ccc(S(=O)(=O)Nc2ccc3oc(=O)ccc3c2)cc1 [Compound 7, 4-methoxy-N-(2-oxo-2H-chromen-6-yl)benzene sulphonamide] | 7.31 | 0.33 | –
